Assay [1] concerns 4T1-Luc cells. As to conditions: 4T1, model of triple negative breast cancer.
The test system of assay [2] is CT26 cells.
The subject of assay [3] is CT26 cells. The assay is described as follows: CT26 colon cancer mouse model (Example 8). In kind it is in vivo, BALB/c mice. As to conditions: CT26 colon carcinoma line.
The subject of assay [4] is A20. The assay is described as follows: IC50 of ibrutinib in A20 mouse lymphoma cells (FIG. 19B). The note with it: read-out: IC50 of ibrutinib, FIG. 19 Panel B. In kind it is cell-based.

As a reminder, the pIC50 is the IC50 on a negative log10 scale, so that one unit is a factor of ten.

pIC50: −log10 of the molar value. Where two headings read alike, the source gives them in different places.

For `C=CC(=O)N1CCC[C@@H](n2nc(-c3ccc(Oc4ccccc4)cc3)c3c(N)ncnc32)C1` [ibrutinib, 1-((R)-3-(4-amino-3-(4-phenoxyphenyl)-1H-pyrazolo[3,4-d]pyrimidin-1-yl)piperidin-1-yl)prop-2-en-1-one], the “sensitivity of the 4T1 cell line to ibrutinib” value in assay [1] was “not sensitive”. For the same compound, the “sensitivity of the CT26 cell line to ibrutinib” value in assay [2] and in assay [3] was “not sensitive” in each case. Moreover, the negative-log IC50 (pIC50) in assay [4] was less than 5.00.

(Values after US20150118222A1, “TREATMENT USING BRUTON'S TYROSINE KINASE INHIBITORS AND IMMUNOTHERAPY” (Pharmacyclics, Inc., priority 2013, published 2015).)
